According to patent US7056663B2, “Prognostic methods for breast cancer” (California Pacific Medical Center, priority 2001, dated 2006):

Tested on: TRβ1 gene
Test: RT-PCR for TRβ1 transcript in breast cancer cell lines after 5-azaC treatment
Format: cell-based
Conditions: MCF7 breast cancer cell line
Excerpt: The region of most common LOH in the experiments described in Example I include the region of the TRβ1 gene. Therefore, we evaluated TRβ1 gene expression in breast cancer cell lines by RT-PCR, using primers encompassing exons 4–7. The primers used for RT-PCR of the TRβ1 transcript were TRβ-F 5′ […] 3′ (forward) (SEQ ID NO:1) and TRβ-R 5′ TGAGCTCCCATTCCTCGTC 3′ (reverse) (SEQ ID NO:2). Presence of a TRβ1 transcript was indicated by the presence of a 500 bp RT-PCR product using template mRNA isolated from non-cancerous or breast cancer cell lines. As a control, corresponding GAPDH transcript levels for each sample was measured within the same PCR reaction mixture by amplifying a 250 bp fragment using the following primers 5′ […] 3′ (forward) (SEQ ID NO:3) and 5′ […] 3′ (reverse) (SEQ ID NO:4). […] Fluorescent in situ hybribization (FISH) analysis was carried out on the cells to determine the copy number of the TRβ1 gene. FISH data is reported as the percentage of cells in which TRβ1 copy number was fewer than the centromeric signal for chromosome 3. The breast cancer cell lines that were used in this study include DU4475, MDA435, SKBR3, MCF7, BT20, MDA157, MDA231, BT474, CAMA1 and T47D. All of these cell lines are available from American Type Culture Collection, Manassas, Va.

SMILES: Nc1ncn([C@@H]2O[C@H](CO)[C@@H](O)[C@H]2O)c(=O)n1 [5-azaC]
- RT-PCR for TRβ1, before versus after 5-aza C treatment: *RT-PCR for MCF7 was the same before and after 5-aza C treatment
